Data on 4 compounds can be found in ChEMBL document CHEMBL1821602, “The Use of 3,5,4'-Tri-O-acetylresveratrol as a Potential Pro-drug for Resveratrol Protects Mice from γ-Irradiation-Induced Death” (ACS Med Chem Lett, 2011).

Active and inactive are the calls of the source.

The species entered for data set [1] is Mus musculus. Nature of the data set: Radioprotective activity against 0 to 7 Gy gamma radiation-induced death in mouse 32Dcl3 cells at 10 uM treated 1 hr prior to irradiation after 7 days by microscopy. Type of data set: functional, cell-based.
Data set [2] concerns Mus musculus. Nature of the data set: Radioprotective activity against 9.75 Gy gamma radiation-induced death in C57BL/6NHsd mouse assessed as increase in survival rate at 1 mg/kg, ip administered 10 mins prior to irradiation. Type of data set: functional, organism-based. More on the design: dose 1 mg/kg.
Data set [3] deals with Serum. Briefly: Metabolic stability in mouse serum up to 27 hrs by HPLC analysis. The format is ADME, cell-free.
The nature of data set [4]: Stability of the compound assessed as half life. Type of data set: physicochemical.
In data set [5] the test system is Mus musculus. Briefly: Radioprotective activity against 9.75 Gy gamma radiation-induced death in C57BL/6NHsd mouse assessed as increase in survival rate at 25 mg/kg, ip administered 10 mins after irradiation daily for 4 days. Type of data set: functional, organism-based. Also noted: dose 25 mg/kg.
Data set [6] relates to Mus musculus. Nature of the data set: Radioprotective activity against 9.75 Gy gamma radiation-induced death in C57BL/6NHsd mouse assessed as survival rate at 10 mg/kg, ip administered 10 mins prior to irradiation. Type of data set: functional.
Data set [7] concerns Serum. Nature of the data set: Metabolic stability in mouse serum assessed as hydrolysis to resveratrol with in 20 secs by HPLC analysis. The format is ADME, cell-free. The conditions noted are these: 20 s.
Data set [8] in a line: Metabolic stability in mouse serum assessed as half life in presence of 1:1:8 mixture of EtOH/Cremophor EL/H2O by HPLC analysis. Type of data set: ADME, cell-free.

Turning to `CCCOC(=O)c1cc(O)c(O)c(O)c1`, the outcome in data set [1] was inactive.
By half-life is commonly meant the time needed for the level to fall by half in the phase considered. For the compound `Oc1ccc(/C=C/c2cc(O)cc(O)c2)cc1` [RESVERATROL], the outcome in data set [2], in data set [5] and in data set [6] was inactive. Also, the Stability result in data set [3] is “Stable”. In addition, the half-life in data set [4] was determined as 8 min. For the same compound, the result in data set [1] was Active.
As to `O=C(O[C@@H]1Cc2c(O)cc(O)cc2O[C@H]1c1ccc(O)c(O)c1)c1cc(O)c(O)c(O)c1`, in data set [1], the outcome was inactive.
As for `CC(=O)Oc1ccc(/C=C/c2cc(OC(C)=O)cc(OC(C)=O)c2)cc1` [TRIACETYLRESVERATROL], the outcome in data set [2] and in data set [5] was inactive. Also, the Stability result in data set [7] was “Unstable”. Also, in data set [6] (route intraperitoneal), the Activity was 80%. For the same compound, the half-life in data set [8] stood at 48 min.
